Measurements from patent publication US20080114007A1 (priority 2006, published 2008).

What follows are compounds tested against CSF-1R (Homo sapiens, UniProt P07333) (assay: Peptide (non-phosphorylated) assay, fluorescence polarization competition immunoassay). Details: 0.7 nM CSF-1R, 308 μM SYEGNSYTFIDPTQ peptide, 1 mM ATP, 80 min; mean of at least three determinations; read-out: c-fms Peptide IC50.
Chain of CSF-1R (P07333 20-972): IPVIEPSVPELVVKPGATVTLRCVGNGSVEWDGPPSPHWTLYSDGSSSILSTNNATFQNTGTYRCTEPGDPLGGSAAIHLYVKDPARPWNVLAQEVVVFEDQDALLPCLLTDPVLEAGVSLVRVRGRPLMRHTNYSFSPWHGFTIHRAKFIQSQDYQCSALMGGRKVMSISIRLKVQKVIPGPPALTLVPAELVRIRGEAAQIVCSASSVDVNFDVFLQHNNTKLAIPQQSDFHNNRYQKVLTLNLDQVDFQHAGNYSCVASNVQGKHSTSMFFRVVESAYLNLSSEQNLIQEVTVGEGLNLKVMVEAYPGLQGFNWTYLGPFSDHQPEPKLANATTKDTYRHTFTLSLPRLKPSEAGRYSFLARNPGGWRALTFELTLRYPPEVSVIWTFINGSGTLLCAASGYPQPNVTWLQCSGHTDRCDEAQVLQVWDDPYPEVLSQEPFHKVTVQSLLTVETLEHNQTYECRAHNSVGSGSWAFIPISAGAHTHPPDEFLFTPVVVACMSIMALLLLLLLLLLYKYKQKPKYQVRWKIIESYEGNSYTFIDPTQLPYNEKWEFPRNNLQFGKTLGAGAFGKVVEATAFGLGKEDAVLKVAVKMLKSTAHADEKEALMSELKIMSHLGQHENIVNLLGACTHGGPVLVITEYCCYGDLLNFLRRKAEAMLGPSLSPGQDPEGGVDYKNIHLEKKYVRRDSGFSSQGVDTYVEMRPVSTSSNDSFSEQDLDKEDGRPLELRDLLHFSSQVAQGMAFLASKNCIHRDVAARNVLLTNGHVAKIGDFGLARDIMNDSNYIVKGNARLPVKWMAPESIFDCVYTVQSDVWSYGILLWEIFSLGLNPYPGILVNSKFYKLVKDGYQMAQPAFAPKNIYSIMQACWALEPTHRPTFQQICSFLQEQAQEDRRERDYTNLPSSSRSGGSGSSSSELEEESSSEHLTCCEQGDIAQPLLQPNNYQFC
Assay type: biochemical
Procedure: The kinase reaction was initiated by adding 1 μL of 10 mM ATP in assay buffer. […] Positive and negative control wells were included on each plate, where 4% DMSO in assay buffer was substituted for the compound; in addition, positive control wells received 1.2 μL of 50 mM EDTA before the start of the reaction.
The plates were covered and incubated at room temperature for 80 min. Reactions were stopped by addition of 1.2 μL of 50 mM EDTA. Each well then received 10 μL of a 1:1:3 mixture of 10× anti-phosphotyrosine antibody, 10×PTK green tracer, and FP dilution buffer, respectively (Cat. # P2837, Invitrogen, Carlsbad, Calif.). The plates were covered, incubated for 30 min at room temperature, and the fluorescence polarization was read on an Analyst plate reader (Molecular Devices).
CONC(=O)c1cn(-c2ccc(C)c(C)c2)c2nc(Nc3ccc(CCN4CCN(C)CC4)cc3)ncc2c1=O [Cpd 52, 8-(3,4-dimethyl-phenyl)-2-{4-[2-(4-methyl-piperazin-1-yl)-ethyl]-phenylamino}-5-oxo-5,8-dihydro-pyrido[2,3-d]pyrimidine-6-carboxylic acid methoxy-amide] was tested, and the IC50 was 0.8 nM. In the case of CCONC(=O)c1cn(-c2ccc(C)c(C)c2)c2nc(Nc3ccc(CCN4CCN(C)CC4)cc3)ncc2c1=O [Cpd 53, 8-(3,4-dimethyl-phenyl)-2-{4-[2-(4-methyl-piperazin-1-yl)-ethyl]-phenylamino}-5-oxo-5,8-dihydro-pyrido[2,3-d]pyrimidine-6-carboxylic acid ethoxy-amide], the IC50 is reported as 0.5 nM. For CCc1ccc(-n2cc(C(=O)NOC)c(=O)c3cnc(Nc4ccc(CCN5CCCC5=O)cc4)nc32)cc1 [Cpd 54, 8-(4-ethyl-phenyl)-5-oxo-2-{4-[2-(2-oxo-pyrrolidin-1-yl)-ethyl]-phenylamino}-5,8-dihydro-pyrido[2,3-d]pyrimidine-6-carboxylic acid methoxy-amide], the IC50 was 1.8 nM. CCc1ccc(-n2cc(C(=O)NOC)c(=O)c3cnc(Nc4ccc(CCN5CCCC5)cc4)nc32)cc1 [Cpd 55, 8-(4-ethyl-phenyl)-5-oxo-2-[4-(2-pyrrolidin-1-yl-ethyl)-phenylamino]-5,8-dihydro-pyrido[2,3-d]pyrimidine-6-carboxylic acid methoxy-amide] gave an IC50 of 0.51 nM. CCc1ccc(-n2cc(C(=O)NOC)c(=O)c3cnc(Nc4ccc(CCN5CCN(C)CC5)cc4)nc32)cc1 [Cpd 56, 8-(4-ethyl-phenyl)-2-{4-[2-(4-methyl-piperazin-1-yl)-ethyl]-phenylamino}-5-oxo-5,8-dihydro-pyrido[2,3-d]pyrimidine-6-carboxylic acid methoxy-amide] showed an IC50 of 1.1 nM. Work on CCONC(=O)c1cn(-c2ccc(CC)cc2)c2nc(Nc3ccc(CCN4CCN(C)CC4)cc3)ncc2c1=O [Cpd 57, 8-(4-ethyl-phenyl)-2-{4-[2-(4-methyl-piperazin-1-yl)-ethyl]-phenylamino}-5-oxo-5,8-dihydro-pyrido[2,3-d]pyrimidine-6-carboxylic acid ethoxy-amide] yielded an IC50 of 0.6 nM. CCc1ccc(-n2cc(C(=O)NOC(C)C)c(=O)c3cnc(Nc4ccc(C5CCNCC5)cc4)nc32)cc1 [Cpd 58, 8-(4-ethyl-phenyl)-5-oxo-2-(4-piperidin-4-yl-phenylamino)-5,8-dihydro-pyrido[2,3-d]pyrimidine-6-carboxylic acid isopropoxy-amide] was tested, and the IC50 was 1.6 nM. Work on CCc1ccc(-n2cc(C(=O)NOC(C)C)c(=O)c3cnc(Nc4ccc(C5CCN(C(C)=O)CC5)cc4)nc32)cc1 [Cpd 59, 2-[4-(1-acetyl-piperidin-4-yl)-phenylamino]-8-(4-ethyl-phenyl)-5-oxo-5,8-dihydro-pyrido[2,3-d]pyrimidine-6-carboxylic acid isopropoxy-amide] yielded an IC50 of 4.5 nM. For CCc1ccc(-n2cc(C(=O)NOC(C)C)c(=O)c3cnc(Nc4ccc(C5CCN(S(C)(=O)=O)CC5)cc4)nc32)cc1 [Cpd 60, 8-(4-ethyl-phenyl)-2-[4-(1-methanesulfonyl-piperidin-4-yl)-phenylamino]-5-oxo-5,8-dihydro-pyrido[2,3-d]pyrimidine-6-carboxylic acid isopropoxy-amide], the IC50 was 7 nM. CONC(=O)c1cn(-c2ccc3c(c2)CCC3)c2nc(Nc3ccc(CCN4CCN(C)CC4)cc3)ncc2c1=O [Cpd 61, 8-indan-5-yl-2-{4-[2-(4-methyl-piperazin-1-yl)-ethyl]-phenylamino}-5-oxo-5,8-dihydro-pyrido[2,3-d]pyrimidine-6-carboxylic acid methoxy-amide] gave an IC50 of 0.68 nM. In the case of CC(C)ONC(=O)c1cn(-c2ccc3c(c2)CCC3)c2nc(Nc3ccc(CCN4CCN(C)CC4)cc3)ncc2c1=O [Cpd 63, 8-indan-5-yl-2-{4-[2-(4-methyl-piperazin-1-yl)-ethyl]-phenylamino}-5-oxo-5,8-dihydro-pyrido[2,3-d]pyrimidine-6-carboxylic acid isopropoxy-amide], the IC50 is reported as 0.52 nM. With CN1CCN(CCc2ccc(Nc3ncc4c(=O)c(C(=O)N5CCCCC5)cn(-c5ccc6c(c5)CCC6)c4n3)cc2)CC1 [Cpd 64, 8-indan-5-yl-2-{4-[2-(4-methyl-piperazin-1-yl)-ethyl]-phenylamino}-6-(piperidine-1-carbonyl)-8H-pyrido[2,3-d]pyrimidin-5-one] the IC50 was 180 nM. CN1CCN(CCc2ccc(Nc3ncc4c(=O)c(C(=O)NCCO)cn(-c5ccc6c(c5)CCC6)c4n3)cc2)CC1 [Cpd 65, 8-indan-5-yl-2-{4-[2-(4-methyl-piperazin-1-yl)-ethyl]-phenylamino}-5-oxo-5,8-dihydro-pyrido[2,3-d]pyrimidine-6-carboxylic acid (2-hydroxy-ethyl)-amide] showed an IC50 of 0.68 nM. In the case of O=C(NCCO)c1cn(-c2ccc3c(c2)CCC3)c2nc(Nc3cccc(N4CCNCC4)c3)ncc2c1=O [Cpd 66, 8-indan-5-yl-5-oxo-2-(3-piperazin-1-yl-phenylamino)-5,8-dihydro-pyrido[2,3-d]pyrimidine-6-carboxylic acid (2-hydroxy-ethyl)-amide], the IC50 is reported as 2.5 nM. CONC(=O)c1cn(-c2ccc3c(c2)CCC3)c2nc(Nc3ccc(C[C@H]4COC(=O)N4)cc3)ncc2c1=O [Cpd 67, (S)-8-indan-5-yl-5-oxo-2-[4-(2-oxo-oxazolidin-4-ylmethyl)-phenylamino]-5,8-dihydro-pyrido[2,3-d]pyrimidine-6-carboxylic acid methoxy-amide] was tested, and the IC50 was 1 nM. Compound CCONC(=O)c1cn(-c2ccc3c(c2)CCC3)c2nc(Nc3ccc(C[C@H]4COC(=O)N4)cc3)ncc2c1=O [Cpd 68, (S)-8-indan-5-yl-5-oxo-2-[4-(2-oxo-oxazolidin-4-ylmethyl)-phenylamino]-5,8-dihydro-pyrido[2,3-d]pyrimidine-6-carboxylic acid ethoxy-amide] has an IC50 of 0.7 nM. CONC(=O)c1cn(-c2ccc3c(c2)CCC3)c2nc(Nc3ccc(C4CCN(C(C)=O)CC4)cc3)ncc2c1=O [Cpd 69, 2-[4-(1-acetyl-piperidin-4-yl)-phenylamino]-8-indan-5-yl-5-oxo-5,8-dihydro-pyrido[2,3-d]pyrimidine-6-carboxylic acid methoxy-amide] was tested, and the IC50 was 1.2 nM. For CCONC(=O)c1cn(-c2ccc3c(c2)CCC3)c2nc(Nc3ccc(C4CCN(C(C)=O)CC4)cc3)ncc2c1=O [Cpd 70, 2-[4-(1-acetyl-piperidin-4-yl)-phenylamino]-8-indan-5-yl-5-oxo-5,8-dihydro-pyrido[2,3-d]pyrimidine-6-carboxylic acid ethoxy-amide], the IC50 was 1.7 nM. With CONC(=O)c1cn(-c2ccc3c(c2)CCC3)c2nc(Nc3ccc(CCS(C)(=O)=O)cc3)ncc2c1=O [Cpd 71, 8-indan-5-yl-2-[4-(2-methanesulfonyl-ethyl)-phenylamino]-5-oxo-5,8-dihydro-pyrido[2,3-d]pyrimidine-6-carboxylic acid methoxy-amide] the IC50 was 0.64 nM. Work on CONC(=O)c1cn(-c2ccc3c(c2)CCC3)c2nc(Nc3ccc(CCN4CCC5(CC4)OCCCO5)cc3)ncc2c1=O [Cpd 73, 2-{4-[2-(1,5-dioxa-9-aza-spiro[5.5]undec-9-yl)-ethyl]-phenylamino}-8-indan-5-yl-5-oxo-5,8-dihydro-pyrido[2,3-d]pyrimidine-6-carboxylic acid methoxy-amide] yielded an IC50 of 0.84 nM.
